Test results from ChEMBL document CHEMBL5352412, “Discovery of 1,2-diphenylethene derivatives as human DNA topoisomerase II catalytic inhibitors and antitumor agents” (Eur J Med Chem, 2022).
Activity calls are given as the source filed them. The calls are words filed in the database; no cut-off is given here.

Legend:
[1] = Selectivity index, ratio of IC50 for human BEAS-2B cells to IC50 for human A549 cells; type: toxicity; conditions: BEAS-2B cells versus A549 cells, read-out: Ratio IC50
[2] = test system: HepG2; test: Antiproliferative activity against human HepG2 cells incubated for 72 hrs by CCK8 assay; type: functional, cell-based; conditions: Homo sapiens, HepG2, 72 h
[3] = Selectivity index, ratio of IC50 for human BEAS-2B cells to IC50 for human PC-3 cells; type: toxicity; conditions: BEAS-2B cells versus PC-3 cells, read-out: Ratio IC50
[4] = test system: HepG2; test: Induction of apoptosis in human HepG2 cells assessed as early apoptotic cells at 0.5 uM incubated for 24 hrs by annexin-V FITC and PI staining based flow cytometry analysis (reference value: 3.7%); type: functional
[5] = test system: HepG2; test: Induction of cell cycle arrest in human HepG2 cells assessed as accumulation of cells at G1 phase at 0.5 uM incubated for 24 hrs by PI staining based flow cytometry analysis (reference value: 54%); type: functional
[6] = Selectivity index, ratio of IC50 for human HL-7702 cells to IC50 for human HepG2 cells; type: toxicity; conditions: HL-7702 cells versus HepG2 cells, read-out: Ratio IC50
[7] = biological target: T1, DNA topoisomerase 2-alpha (Homo sapiens, UniProt P11388); test: Inhibition of human topoisomerase 2-alpha assessed as DNA intercalation at 100 to 200 uM using pBR322 DNA as substrate measured after 30 mins by agarose gel electrophoresis analysis; conditions: dose 100-200 µM
T1 sequence (P11388 whole entry): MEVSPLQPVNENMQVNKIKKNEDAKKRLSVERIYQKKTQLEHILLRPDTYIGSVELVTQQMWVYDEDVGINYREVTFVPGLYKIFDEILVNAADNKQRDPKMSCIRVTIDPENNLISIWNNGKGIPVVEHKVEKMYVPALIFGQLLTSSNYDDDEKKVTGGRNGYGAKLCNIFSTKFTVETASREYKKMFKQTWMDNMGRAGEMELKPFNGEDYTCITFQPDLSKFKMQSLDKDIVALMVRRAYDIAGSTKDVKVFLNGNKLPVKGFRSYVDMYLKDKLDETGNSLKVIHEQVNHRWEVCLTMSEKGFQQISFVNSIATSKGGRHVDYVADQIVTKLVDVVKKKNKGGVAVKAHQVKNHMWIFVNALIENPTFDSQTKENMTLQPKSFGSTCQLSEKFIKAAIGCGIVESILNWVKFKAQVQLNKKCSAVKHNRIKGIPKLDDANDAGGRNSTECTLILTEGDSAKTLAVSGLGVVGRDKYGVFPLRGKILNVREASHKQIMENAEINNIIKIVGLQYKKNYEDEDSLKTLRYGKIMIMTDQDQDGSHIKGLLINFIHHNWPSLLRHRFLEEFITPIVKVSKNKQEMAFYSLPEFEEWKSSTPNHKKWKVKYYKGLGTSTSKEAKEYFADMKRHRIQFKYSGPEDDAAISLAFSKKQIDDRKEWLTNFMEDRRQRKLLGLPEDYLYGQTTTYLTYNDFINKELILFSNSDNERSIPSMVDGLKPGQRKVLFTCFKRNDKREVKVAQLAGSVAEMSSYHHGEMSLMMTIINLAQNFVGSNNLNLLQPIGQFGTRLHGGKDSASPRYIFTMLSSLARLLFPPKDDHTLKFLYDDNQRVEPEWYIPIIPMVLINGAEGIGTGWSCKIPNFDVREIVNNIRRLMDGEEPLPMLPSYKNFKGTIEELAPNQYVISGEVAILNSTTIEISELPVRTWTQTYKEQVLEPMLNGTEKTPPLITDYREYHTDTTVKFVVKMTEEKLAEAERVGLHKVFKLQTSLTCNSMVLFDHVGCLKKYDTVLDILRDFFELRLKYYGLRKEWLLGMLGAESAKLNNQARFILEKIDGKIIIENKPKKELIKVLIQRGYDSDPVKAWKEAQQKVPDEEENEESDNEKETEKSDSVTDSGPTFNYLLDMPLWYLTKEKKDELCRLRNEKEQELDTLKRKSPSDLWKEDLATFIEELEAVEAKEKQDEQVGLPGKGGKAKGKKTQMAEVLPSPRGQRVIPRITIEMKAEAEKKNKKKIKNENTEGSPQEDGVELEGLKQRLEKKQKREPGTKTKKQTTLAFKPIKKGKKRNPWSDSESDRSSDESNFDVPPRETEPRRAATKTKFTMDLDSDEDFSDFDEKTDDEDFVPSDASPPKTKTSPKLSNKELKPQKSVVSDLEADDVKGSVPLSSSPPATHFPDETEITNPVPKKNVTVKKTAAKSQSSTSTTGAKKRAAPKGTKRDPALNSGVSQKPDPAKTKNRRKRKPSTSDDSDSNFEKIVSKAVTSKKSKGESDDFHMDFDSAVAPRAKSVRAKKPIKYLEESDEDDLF

[8] = test system: HepG2; test: Induction of apoptosis in human HepG2 cells assessed as early apoptotic cells at 1 uM incubated for 24 hrs by annexin-V FITC and PI staining based flow cytometry analysis (reference value: 3.7%); type: functional
[9] = biological target: T1, DNA topoisomerase 2-alpha; test: Inhibition of human topoisomerase 2-alpha assessed as reduction in relaxation of pBR322 DNA at 100 uM measured after 30 mins by agarose gel electrophoresis method relative to control
[10] = test system: HepG2; test: Induction of cell cycle arrest in human HepG2 cells assessed as accumulation of cells at S phase at 0.5 uM incubated for 24 hrs by PI staining based flow cytometry analysis (reference value: 28.2%); type: functional
[11] = test system: HepG2; test: Induction of apoptosis in human HepG2 cells assessed as necrotic cells at 0.5 uM incubated for 24 hrs by annexin-V FITC and PI staining based flow cytometry analysis (reference value: 0.2%); type: functional
[12] = Selectivity index, ratio of IC50 for human BEAS-2B cells to IC50 for human HepG2 cells; type: toxicity; conditions: BEAS-2B cells versus HepG2 cells, read-out: Ratio IC50
[13] = test system: HepG2; test: Induction of apoptosis in human HepG2 cells assessed as late apoptotic cells at 0.5 uM incubated for 24 hrs by annexin-V FITC and PI staining based flow cytometry analysis (reference value: 2.3%); type: functional
[14] = test system: HCT-116; test: Antiproliferative activity against human HCT-116 cells incubated for 72 hrs by CCK8 assay; type: functional, cell-based; conditions: HCT-116, 72 h
[15] = test system: HepG2; test: Upregulation of gamma-H2AX level in human HepG2 cells incubated for 4 hrs by Western blotting analysis; type: functional, cell-based
[16] = test system: HepG2; test: Induction of apoptosis in human HepG2 cells assessed as viable cells at 0.5 uM incubated for 24 hrs by annexin-V FITC and PI staining based flow cytometry analysis (reference value: 93.8%); type: functional; conditions: read-out: Activity
[17] = test system: A549; test: Antiproliferative activity against human A549 cells incubated for 72 hrs by CCK8 assay; type: functional, cell-based; conditions: A549, 72 h
[18] = test system: HepG2; test: Induction of cell cycle arrest in human HepG2 cells assessed as accumulation of cells at S phase at 1 uM incubated for 24 hrs by PI staining based flow cytometry analysis (reference value: 28.2%); type: functional
[19] = test system: HepG2; test: Induction of cell cycle arrest in human HepG2 cells assessed as accumulation of cells at G2/M phase at 1 uM incubated for 24 hrs by PI staining based flow cytometry analysis (reference value: 17.5%); type: functional
[20] = Antiproliferative activity against human HL7702 cells incubated for 72 hrs by CCK8 assay; type: toxicity, cell-based; conditions: HL7702 (L02) cells
[21] = test system: HeLa; test: Antiproliferative activity against human HeLa cells incubated for 72 hrs by CCK8 assay; type: functional, cell-based
[22] = biological target: T1, DNA topoisomerase 2-alpha; test: Inhibition of human topoisomerase 2-alpha using pBR322 DNA as substrate incubated for 1 hr in presence of ATP by malachite green phosphate method
[23] = Selectivity index, ratio of IC50 for human HL-7702 cells to IC50 for human A549 cells; type: toxicity; conditions: HL-7702 cells versus A549 cells, read-out: Ratio IC50
[24] = species on record: Homo sapiens; test: Selectivity index, ratio of IC50 for human CCL-226 cells to IC50 for human A549 cells
[25] = test system: HepG2; test: Induction of apoptosis in human HepG2 cells assessed as necrotic cells at 1 uM incubated for 24 hrs by annexin-V FITC and PI staining based flow cytometry analysis (reference value: 0.2%); type: functional
[26] = species on record: Homo sapiens; test: Selectivity index, ratio of IC50 for human CCL-226 cells to IC50 for human MDA-MB-231 cells
[27] = test system: HepG2; test: Induction of apoptosis in human HepG2 cells assessed as viable cells at 1 uM incubated for 24 hrs by annexin-V FITC and PI staining based flow cytometry analysis (reference value: 93.8%); type: functional; conditions: read-out: Activity
[28] = biological target: T1, DNA topoisomerase 2-alpha; test: Inhibition of human topoisomerase 2-alpha assessed as reduction in relaxation of pBR322 DNA at 25 uM measured after 30 mins by agarose gel electrophoresis method relative to control
[29] = Toxicity in C57BL/6J mouse assessed as change in body weight at 500 mg/kg administered via gavage twice at day 1 and measured for 7 days; type: organism-based; conditions: in vivo, po, 168 h, time 7 day
[30] = Selectivity index, ratio of IC50 for human BEAS-2B cells to IC50 for human HeLa cells; type: toxicity; conditions: BEAS-2B cells versus HeLa cells, read-out: Ratio IC50
[31] = Selectivity index, ratio of IC50 for human BEAS-2B cells to IC50 for human HCT-116 cells; type: toxicity; conditions: BEAS-2B cells versus HCT-116 cells, read-out: Ratio IC50
[32] = species on record: Homo sapiens; test: Selectivity index, ratio of IC50 for human CCL-226 cells to IC50 for human HeLa cells
[33] = species on record: Homo sapiens; test: Selectivity index, ratio of IC50 for human CCL-226 cells to IC50 for human HCT-116 cells
[34] = test system: HepG2; test: Induction of apoptosis in human HepG2 cells assessed as late apoptotic cells at 1 uM incubated for 24 hrs by annexin-V FITC and PI staining based flow cytometry analysis (reference value: 2.3%); type: functional
[35] = biological target: DNA topoisomerase 2-beta (Homo sapiens, UniProt Q02880); test: Inhibition of human topoisomerase 2-beta assessed as reduction in relaxation of pBR322 DNA measured after 30 mins by agarose gel electrophoresis method
Sequence of DNA topoisomerase 2-beta (Q02880 whole entry): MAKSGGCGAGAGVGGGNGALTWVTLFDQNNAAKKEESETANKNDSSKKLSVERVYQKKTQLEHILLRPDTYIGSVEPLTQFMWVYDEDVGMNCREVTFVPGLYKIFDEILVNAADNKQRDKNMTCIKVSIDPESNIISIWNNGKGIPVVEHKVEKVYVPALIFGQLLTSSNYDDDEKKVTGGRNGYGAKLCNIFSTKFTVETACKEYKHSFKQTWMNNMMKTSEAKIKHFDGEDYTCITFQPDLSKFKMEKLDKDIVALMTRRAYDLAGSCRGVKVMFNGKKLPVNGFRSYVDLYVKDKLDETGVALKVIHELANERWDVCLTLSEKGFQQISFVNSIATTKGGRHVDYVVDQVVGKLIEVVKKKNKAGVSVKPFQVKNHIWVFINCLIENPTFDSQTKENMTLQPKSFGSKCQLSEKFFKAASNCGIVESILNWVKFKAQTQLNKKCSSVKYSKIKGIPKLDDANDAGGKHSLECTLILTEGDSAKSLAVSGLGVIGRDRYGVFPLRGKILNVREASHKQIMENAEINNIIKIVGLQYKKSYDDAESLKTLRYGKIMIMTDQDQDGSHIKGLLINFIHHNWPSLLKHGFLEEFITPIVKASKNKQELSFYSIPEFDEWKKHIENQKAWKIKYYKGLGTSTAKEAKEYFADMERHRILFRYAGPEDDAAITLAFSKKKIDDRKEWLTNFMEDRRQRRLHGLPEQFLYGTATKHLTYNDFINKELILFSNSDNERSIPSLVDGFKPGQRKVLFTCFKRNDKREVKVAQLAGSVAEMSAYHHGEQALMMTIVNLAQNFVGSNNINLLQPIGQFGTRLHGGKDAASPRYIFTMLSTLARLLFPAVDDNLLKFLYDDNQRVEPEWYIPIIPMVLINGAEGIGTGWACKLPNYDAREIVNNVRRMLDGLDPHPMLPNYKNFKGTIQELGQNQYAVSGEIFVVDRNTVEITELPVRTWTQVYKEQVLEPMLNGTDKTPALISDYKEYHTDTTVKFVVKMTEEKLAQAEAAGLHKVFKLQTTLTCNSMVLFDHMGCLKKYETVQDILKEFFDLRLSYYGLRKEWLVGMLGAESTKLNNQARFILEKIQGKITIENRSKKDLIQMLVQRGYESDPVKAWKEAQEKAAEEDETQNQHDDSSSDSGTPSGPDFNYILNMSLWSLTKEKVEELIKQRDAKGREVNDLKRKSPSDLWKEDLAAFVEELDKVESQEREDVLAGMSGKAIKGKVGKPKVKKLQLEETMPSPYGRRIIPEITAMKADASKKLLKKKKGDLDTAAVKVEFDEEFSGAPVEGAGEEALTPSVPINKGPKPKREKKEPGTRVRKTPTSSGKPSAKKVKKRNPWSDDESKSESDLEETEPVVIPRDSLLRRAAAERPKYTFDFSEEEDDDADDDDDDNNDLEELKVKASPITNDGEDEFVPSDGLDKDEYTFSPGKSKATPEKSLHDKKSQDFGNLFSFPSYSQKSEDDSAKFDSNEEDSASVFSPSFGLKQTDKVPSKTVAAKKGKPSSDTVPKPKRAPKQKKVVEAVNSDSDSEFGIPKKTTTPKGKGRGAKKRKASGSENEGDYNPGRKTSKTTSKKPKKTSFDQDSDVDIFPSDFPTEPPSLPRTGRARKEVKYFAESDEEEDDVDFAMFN

[36] = Selectivity index, ratio of IC50 for human HL-7702 cells to IC50 for human PC-3 cells; type: toxicity; conditions: HL-7702 cells versus PC-3 cells, read-out: Ratio IC50
[37] = test system: MDA-MB-231; test: Antiproliferative activity against human MDA-MB-231 cells incubated for 72 hrs by CCK8 assay; type: functional, cell-based; conditions: Homo sapiens, MDA-MB-231, 72 h

IC50 [2]: 300 nM
inhibition [7]: inactive
inhibition [9]: 82.1%
IC50 [14]: 200 nM
IC50 [17]: 300 nM
IC50 [21]: 100 nM
inhibition [22]: Dose-Dependent Effect
Ratio IC50 [24]: > 52.1
Ratio IC50 [26]: > 52.1
inhibition [28]: 84.6%
Ratio IC50 [32]: > 52.1
Ratio IC50 [33]: > 52.1
IC50 [35]: 10.1 µM
IC50 [37]: 200 nM
Structure (SMILES): O=C(CCc1ccccc1)Nc1ccc(-c2ccc3cc(O)ccc3c2)cc1
selectivity ratio [1]: > 52.1
selectivity ratio [3]: > 52.1
Activity [4]: 14%
Activity [5]: 19%
selectivity ratio [6]: > 52.1
Activity [8]: 24.5%
Activity [10]: 32%
Activity [11]: 0.1%
selectivity ratio [12]: > 52.1
Activity [13]: 13.4%
Activity [15]: inactive
viability at 0.5 µM [16]: 72.5%
Activity [18]: 11.2%
Activity [19]: 84.1%
IC50 at 72 h [20]: 16.7 µM
selectivity ratio [23]: > 52.1
Activity [25]: 0.3%
viability at 1 µM [27]: 29.2%
Activity [29]: Non-Toxic
selectivity ratio [30]: > 52.1
selectivity ratio [31]: > 52.1
Activity [34]: 46.1%
selectivity ratio [36]: > 52.1
